Results taken from article PMC4106271 (Journal of Medicinal Chemistry, 2014).

Tests used:
Type in all cases: cell-based
α2β2γ2S GABAA receptors = target: T1, α2β2γ2S GABAA receptors (Homo sapiens, UniProt P47869+P47870); experiment: Two-microelectrode voltage clamp, IGABA modulation, α2β2γ2S; conditions: for nH: Hill coefficient
T1 construct: expressed in transfected cells; host or cells: Xenopus laevis oocytes injected with cRNA (pCMV cDNA templates)
Experimental: (§1) Preparation of stage V–VI oocytes from X. laevis and synthesis of capped runoff poly(A) cRNA transcripts from linearized cDNA templates (pCMV vector) was performed as previously described.[49] […] Follicle membranes from isolated oocytes were enzymatically digested with 2 mg/mL collagenase (type 1A, Sigma–Aldrich, Vienna, Austria).
(§2) Selected oocytes were injected with 10–50 nL of DEPC-treated water (diethyl pyrocarbonate, Sigma, Vienna, Austria) containing the different GABAA cRNAs at a concentration of approximately 300–3000 pg·nL^–1·subunit^–1.
(§3) To ensure expression of the γ2S subunit in the case of α1/2/3/5β2/3γ2S receptors, cRNAs were mixed in a ratio of 1:1:10. […] The amount of cRNAs was determined by means of a NanoDrop ND-1000 (Kisker-Biotech, Steinfurt, Germany).
(§4) Oocytes were stored at +18 °C in modified ND96 solution (90 mM NaCl, 1 mM CaCl2, 1 mM KCl, 1 mM MgCl2·6H2O, and 5 mM HEPES [4-(2-hydroxyethyl)-1-piperazineethanesulfonic acid], pH 7.4, all from Sigma–Aldrich, Vienna, Austria).
(§5) Chloride currents through GABAA receptors (IGABA) were measured at room temperature (+21 ± 1 °C) by means of a two-microelectrode voltage clamp technique making use of a Turbo TEC-05X amplifier (npi electronic, Tamm, Germany). IGABA were elicited at a holding potential of –70 mV. Data acquisition was carried out by means of an Axon Digidata 1322A interface using pCLAMP v.10 (Molecular Devices, Sunnyvale, CA). The modified ND96 solution was used as bath solution.
(§6) GABA and the studied derivatives were applied by means of the ScreeningTool (npi electronic, Tamm, Germany) fast perfusion system as described previously.[50] To elicit IGABA, the chamber was perfused with 120 μL of GABA- or compound-containing solution at a volume rate of 300 μL/s.[34] Care was taken to account for possible slow recovery from increasing levels of desensitization in the presence of high drug concentrations. The duration of washout periods was therefore extended from 1.5 min (<10 μM compounds) to 30 min (≥10 μM compounds). Oocytes with maximal current amplitudes >3 μA were discarded to exclude voltage clamp errors.
(§7) Stimulation of chloride currents by modulators of the GABAA receptor was measured at a GABA concentration eliciting between 3% and 7% of the maximal current amplitude (EC3–7). The GABA EC3–7 was determined for each oocyte individually. Enhancement of the chloride current was defined as (IGABA+compd/IGABA) – 1, where IGABA+compd is the current response in the presence of a given compound and IGABA is the control GABA current. IGABA-max reflects the maximal IGABA enhancement. […] Statistical significance was calculated by paired Student t-test with a confidence interval of <0.05.

α4β2γ2S GABAA receptors = target: T2, α4β2γ2S GABAA receptors (Homo sapiens, UniProt P47870+P48169); experiment: Two-microelectrode voltage clamp, IGABA modulation, α4β2γ2S; conditions: for nH: Hill coefficient
T2 construct: expressed in transfected cells; host or cells: Xenopus laevis oocytes injected with cRNA (pCMV cDNA templates)
T2 sequence (P48169 36-554): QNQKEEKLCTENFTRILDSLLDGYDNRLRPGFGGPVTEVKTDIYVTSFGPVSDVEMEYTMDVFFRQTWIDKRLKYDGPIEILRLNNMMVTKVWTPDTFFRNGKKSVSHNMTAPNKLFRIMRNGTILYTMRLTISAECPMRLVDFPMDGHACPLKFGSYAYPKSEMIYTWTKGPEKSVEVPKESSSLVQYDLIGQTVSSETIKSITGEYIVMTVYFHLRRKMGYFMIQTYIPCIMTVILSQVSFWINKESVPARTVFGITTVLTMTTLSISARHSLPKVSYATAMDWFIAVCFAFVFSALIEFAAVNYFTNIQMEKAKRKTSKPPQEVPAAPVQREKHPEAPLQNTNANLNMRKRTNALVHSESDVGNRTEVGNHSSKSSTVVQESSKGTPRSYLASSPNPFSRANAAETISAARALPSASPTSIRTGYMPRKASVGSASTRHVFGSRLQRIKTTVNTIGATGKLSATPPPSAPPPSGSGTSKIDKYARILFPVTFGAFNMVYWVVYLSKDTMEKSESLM
T2 sequence (P47870 26-512): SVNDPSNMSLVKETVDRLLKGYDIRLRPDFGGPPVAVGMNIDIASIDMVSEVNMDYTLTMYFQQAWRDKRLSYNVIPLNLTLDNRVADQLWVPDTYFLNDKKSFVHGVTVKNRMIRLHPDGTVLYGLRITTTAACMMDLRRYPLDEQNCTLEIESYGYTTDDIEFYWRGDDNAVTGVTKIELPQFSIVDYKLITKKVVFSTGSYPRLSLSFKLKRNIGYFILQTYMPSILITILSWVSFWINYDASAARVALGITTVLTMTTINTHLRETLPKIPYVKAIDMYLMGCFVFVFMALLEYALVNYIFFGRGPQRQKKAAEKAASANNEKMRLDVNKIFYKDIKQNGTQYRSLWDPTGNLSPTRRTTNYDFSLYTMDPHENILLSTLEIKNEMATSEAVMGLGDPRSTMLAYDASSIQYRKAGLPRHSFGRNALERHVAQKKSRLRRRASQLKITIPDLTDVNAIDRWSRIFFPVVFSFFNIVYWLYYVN
T2 sequence (P18507 40-467 isoform P18507-1 partner limits assumed): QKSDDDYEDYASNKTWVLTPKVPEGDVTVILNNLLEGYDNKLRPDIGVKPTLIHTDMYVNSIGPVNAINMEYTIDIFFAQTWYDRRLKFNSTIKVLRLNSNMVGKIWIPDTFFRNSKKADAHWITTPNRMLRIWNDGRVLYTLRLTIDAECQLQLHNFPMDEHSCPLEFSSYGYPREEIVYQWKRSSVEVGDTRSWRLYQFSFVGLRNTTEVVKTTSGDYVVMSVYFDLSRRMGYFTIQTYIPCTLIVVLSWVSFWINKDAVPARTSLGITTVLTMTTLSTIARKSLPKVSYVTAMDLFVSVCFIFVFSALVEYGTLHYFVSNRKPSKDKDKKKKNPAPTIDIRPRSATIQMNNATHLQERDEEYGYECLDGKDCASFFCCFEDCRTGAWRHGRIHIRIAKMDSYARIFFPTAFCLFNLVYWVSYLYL
Experimental: as §1, §2, §3, §4, §5, §6, §7

TRPV1 = target: T3, TRPV1 (Homo sapiens, UniProt Q8NER1); experiment: TRPV1 activation in Xenopus oocytes; conditions: 100 μM, data not shown
T3 construct: expressed in transfected cells; host or cells: Xenopus laevis oocytes
T3 sequence (Q8NER1 whole entry, species assumed): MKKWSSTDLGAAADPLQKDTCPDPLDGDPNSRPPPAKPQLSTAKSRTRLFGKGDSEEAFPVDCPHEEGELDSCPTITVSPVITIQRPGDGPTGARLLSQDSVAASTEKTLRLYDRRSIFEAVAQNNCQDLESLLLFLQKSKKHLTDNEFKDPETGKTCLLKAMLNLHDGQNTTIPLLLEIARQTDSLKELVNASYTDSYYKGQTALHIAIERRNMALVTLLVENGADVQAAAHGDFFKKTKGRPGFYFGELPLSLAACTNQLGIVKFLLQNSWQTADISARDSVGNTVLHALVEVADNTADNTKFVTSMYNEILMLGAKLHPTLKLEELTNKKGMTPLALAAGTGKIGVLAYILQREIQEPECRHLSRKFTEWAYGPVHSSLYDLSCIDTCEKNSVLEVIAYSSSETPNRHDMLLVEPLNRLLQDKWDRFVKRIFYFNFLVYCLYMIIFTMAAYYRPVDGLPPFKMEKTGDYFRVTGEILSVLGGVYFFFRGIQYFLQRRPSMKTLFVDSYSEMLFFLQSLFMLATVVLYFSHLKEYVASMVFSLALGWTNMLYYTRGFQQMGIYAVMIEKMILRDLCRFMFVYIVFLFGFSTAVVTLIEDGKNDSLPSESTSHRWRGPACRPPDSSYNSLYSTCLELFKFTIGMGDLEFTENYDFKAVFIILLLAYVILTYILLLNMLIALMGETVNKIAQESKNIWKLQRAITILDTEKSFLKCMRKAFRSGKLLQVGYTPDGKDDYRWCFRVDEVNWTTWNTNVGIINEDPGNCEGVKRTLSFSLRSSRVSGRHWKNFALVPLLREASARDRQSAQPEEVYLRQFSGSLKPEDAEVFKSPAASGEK
Source text: (for review see ref ([47])). In order to rule out potential activation of TRPV1, selected compounds were studied in X. laevis oocytes for interaction with TRPV1 prior to in vivo characterization. […] Both compounds were further characterized concerning their anxiolytic activity (see also ref ([34])).

α1β3γ2S GABAA receptors = target: T4, α1β3γ2S GABAA receptors (Homo sapiens, UniProt P14867+P28472); experiment: Two-microelectrode voltage clamp, IGABA modulation, α1β3γ2S; conditions: for nH: Hill coefficient
T4 construct: expressed in transfected cells; host or cells: Xenopus laevis oocytes injected with cRNA (pCMV cDNA templates)
T4 sequence (P14867 28-456): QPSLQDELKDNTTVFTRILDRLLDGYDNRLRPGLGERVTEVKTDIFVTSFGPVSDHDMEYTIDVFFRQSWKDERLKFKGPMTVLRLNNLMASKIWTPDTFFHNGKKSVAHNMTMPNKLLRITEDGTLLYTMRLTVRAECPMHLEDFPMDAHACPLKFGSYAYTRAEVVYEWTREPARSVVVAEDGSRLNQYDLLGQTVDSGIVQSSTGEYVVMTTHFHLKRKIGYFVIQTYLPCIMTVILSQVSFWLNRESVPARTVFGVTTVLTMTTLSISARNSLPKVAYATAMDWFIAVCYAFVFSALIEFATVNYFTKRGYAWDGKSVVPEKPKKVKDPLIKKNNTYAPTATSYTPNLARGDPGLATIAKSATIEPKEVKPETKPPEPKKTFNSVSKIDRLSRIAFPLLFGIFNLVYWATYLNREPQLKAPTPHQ
T4 sequence (P28472 26-473): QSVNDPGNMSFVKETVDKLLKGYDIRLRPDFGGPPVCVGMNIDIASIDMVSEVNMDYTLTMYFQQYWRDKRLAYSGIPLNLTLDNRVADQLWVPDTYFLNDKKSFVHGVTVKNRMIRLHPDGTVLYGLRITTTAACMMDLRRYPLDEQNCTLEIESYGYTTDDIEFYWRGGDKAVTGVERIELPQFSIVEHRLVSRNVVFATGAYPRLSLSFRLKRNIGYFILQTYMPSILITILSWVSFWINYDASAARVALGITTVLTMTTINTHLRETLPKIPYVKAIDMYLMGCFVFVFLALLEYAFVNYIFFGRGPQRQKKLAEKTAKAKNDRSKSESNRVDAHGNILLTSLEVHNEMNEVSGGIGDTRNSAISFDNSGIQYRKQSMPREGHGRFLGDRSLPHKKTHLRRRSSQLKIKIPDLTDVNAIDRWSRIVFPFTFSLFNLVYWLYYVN
T4 sequence (P18507 40-467 isoform P18507-1 partner limits assumed): as the sequence (P18507 40-467 isoform P18507-1 partner limits assumed) above
Experimental: Preparation of stage V–VI oocytes from X. laevis and synthesis of capped runoff poly(A) cRNA transcripts from linearized cDNA templates (pCMV vector) was performed as previously described.[49] Female X. laevis frogs (Nasco) were anesthetized by 15 min incubation in a 0.2% MS-222 (methanesulfonate salt of 3-aminobenzoic acid ethyl ester; Sigma–Aldrich, Vienna, Austria) solution before removal of parts of the ovaries. Follicle membranes from isolated oocytes were enzymatically digested with 2 mg/mL collagenase (type 1A, Sigma–Aldrich, Vienna, Austria).
as §2
To ensure expression of the γ2S subunit in the case of α1/2/3/5β2/3γ2S receptors, cRNAs were mixed in a ratio of 1:1:10. For expression of receptors composed of α4β2γ2S and α1β1γ2S, cRNAS were mixed in a ratio of 3:1:10. The amount of cRNAs was determined by means of a NanoDrop ND-1000 (Kisker-Biotech, Steinfurt, Germany).
as §4
as §5, with “solution. Microelectrodes were filled with 2 M KCl and had resistances between 1 and 3 MΩ.” for “solution.”
as §6, with “Oocytes with maximal current amplitudes >3 μA were discarded to exclude voltage clamp errors.” left out
Stimulation of chloride currents by modulators of the GABAA receptor was measured at a GABA concentration eliciting between 3% and 7% of the maximal current amplitude (EC3–7). The GABA EC3–7 was determined for each oocyte individually. […] Statistical significance was calculated by paired Student t-test with a confidence interval of <0.05.

T1 sequence (P47869 29-451): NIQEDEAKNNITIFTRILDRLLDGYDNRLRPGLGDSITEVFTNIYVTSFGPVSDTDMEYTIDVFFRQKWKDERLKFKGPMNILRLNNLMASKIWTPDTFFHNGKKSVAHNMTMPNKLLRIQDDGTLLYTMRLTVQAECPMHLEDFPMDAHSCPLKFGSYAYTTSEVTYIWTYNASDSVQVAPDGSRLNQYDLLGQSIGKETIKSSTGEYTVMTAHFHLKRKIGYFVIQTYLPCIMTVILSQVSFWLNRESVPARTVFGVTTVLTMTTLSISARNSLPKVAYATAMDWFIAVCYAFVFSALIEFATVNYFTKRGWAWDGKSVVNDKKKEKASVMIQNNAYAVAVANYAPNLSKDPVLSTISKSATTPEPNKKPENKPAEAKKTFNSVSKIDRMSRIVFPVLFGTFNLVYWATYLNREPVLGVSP
T1 sequence (P47870 26-512): as the sequence (P47870 26-512) above
T1 sequence (P18507 40-467 isoform P18507-1 partner limits assumed): as the sequence (P18507 40-467 isoform P18507-1 partner limits assumed) above

SMILES	EC50 (α2β2γ2S GABAA receptors) [µM]	nH (α2β2γ2S GABAA receptors)	EC50 (α4β2γ2S GABAA receptors) [µM]	nH (α4β2γ2S GABAA receptors)	activation of TRPV1 (TRPV1)	EC50 (α1β3γ2S GABAA receptors) [µM]	nH (α1β3γ2S GABAA receptors)
CCCN(CCC)C(=O)/C=C/C=C/c1ccc2c(c1)OCO2 [Compound 23, (2E,4E)-5-(1,3-benzodioxol-5-yl)-N,N-dipropyl-2,4-pentadienamide]	26.4 ± 6.6	1.9 ± 0.4	34.7 ± 3.8	1.7 ± 0.1	did not activate TRPV1	34.7 ± 5.7	1.9 ± 0.2
CCCCN(CCCC)C(=O)/C=C/C=C/c1ccc2c(c1)OCO2 [Compound 25, (2E,4E)-5-(1,3-Benzodioxol-5-yl)-N,N-dibutyl-2,4-pentadienamide]	14.8 ± 1.9	2.2 ± 0.3	56.7 ± 21	1.3 ± 0.3	did not activate TRPV1	29.5 ± 2.9	1.5 ± 0.1
